{"source": "patent US10472341B2", "about": "“Bicyclic tetrahydrothiazepine derivatives useful for the treatment of neoplastic and/or infectious diseases” (APEIRON BIOLOGICS AG, priority 2015, dated 2019)", "key": {"[1]": {"tested_on": "NK cells & K562 leukemia cells", "assay": "NK cells alone or in co-culture with K562 leukemia cells: IFN-gamma, TNF-alpha, granzyme, CD25+CD69+", "type": "cell-based, human", "procedure": "Isolated PBMCs, NK cells or CD8 positive cells were plated in Xvivo medium at 1.5*10^5 cells per in 96 well culture plates in the presence of 0.3*10^4 tumor cells where indicated. Cytokine secretion was determined by ELISA, immune cell activation (using Beckman-Coulter Abs CD25-PC5, CD69-PC7), cell viability and numbers by flow cytometry (Beckman-Coulter FC500 or Gallios) using 7-AAD exclusion as criterion for living cells. One of the physiological functions of NK cells in anti-tumor immunity is the recognition and destruction of tumor cells that have a low expression of MHC-molecules, thus avoiding recognition by CD8 T cells. Downregulation of MHC molecules is often actively mediated by an infecting virus or occurs during development of malignant neoplasms. The […] leukemia cell line expresses only very low amounts of MHC-molecules and thus is often used as a model system to investigate anti-tumor NK cell reactivity. NK cells were isolated from PBMCs and were incubated with and without compounds, either alone or in co-culture with K562 leukemia cells."}, "K562 leukemia cells": {"tested_on": "K562 leukemia cells", "assay": "Living tumor cells (K562) in the presence of NK cells", "type": "cell-based, human", "procedure": "Isolated PBMCs, NK cells or CD8 positive cells were plated in Xvivo medium at 1.5*10^5 cells per in 96 well culture plates in the presence of 0.3*10^4 tumor cells where indicated. Cytokine secretion was determined by ELISA, immune cell activation (using Beckman-Coulter Abs CD25-PC5, CD69-PC7), cell viability and numbers by flow cytometry (Beckman-Coulter FC500 or Gallios) using 7-AAD exclusion as criterion for living cells. NK cells were isolated from PBMCs and were incubated with and without compounds, either alone or in co-culture with K562 leukemia cells."}}}
{"compound": "CC(C)NC(=O)c1cc2c(cc1F)S(=O)(=O)C[C@H](N)C(=O)N2Cc1ccc(Cl)cc1.Cl", "note": "[Example 77, (3R)-3-amino-5-[(4-chlorophenyl)methyl]-8-fluoro-1,1,4-trioxo-N-(propan-2-yl)-2,3,4,5-tetrahydro-1λ^6,5-benzothiazepine-7-carboxamide hydrochloride]", "values": [{"measurement": "IFN-gamma [ng/ml] Avg", "setting": "[1]; 0.03 μM, NK cells & K562", "result": 2.20, "unit": "ng/mL"}, {"measurement": "TNF-alpha [ng/ml] avg", "setting": "[1]; 0.03 μM, NK cells & K562", "result": 0.08, "unit": "ng/mL"}, {"measurement": "IFN-gamma [ng/ml] Avg", "setting": "[1]; 0.03 μM, NK cells only", "result": "below"}, {"measurement": "TNF-alpha [ng/ml] avg", "setting": "[1]; 0.03 μM, NK cells only", "result": "below"}, {"measurement": "IFN-gamma [ng/ml] Avg", "setting": "[1]; 0.1 μM, NK cells & K562", "result": 2.38, "unit": "ng/mL"}, {"measurement": "TNF-alpha [ng/ml] avg", "setting": "[1]; 0.1 μM, NK cells & K562", "result": 0.11, "unit": "ng/mL"}, {"measurement": "IFN-gamma [ng/ml] Avg", "setting": "[1]; 0.1 μM, NK cells only", "result": "below"}, {"measurement": "TNF-alpha [ng/ml] avg", "setting": "[1]; 0.1 μM, NK cells only", "result": "below"}, {"measurement": "IFN-gamma [ng/ml] Avg", "setting": "[1]; 0.3 μM, NK cells & K562", "result": 6.06, "unit": "ng/mL"}, {"measurement": "TNF-alpha [ng/ml] avg", "setting": "[1]; 0.3 μM, NK cells & K562", "result": 0.19, "unit": "ng/mL"}, {"measurement": "IFN-gamma [ng/ml] Avg", "setting": "[1]; 0.3 μM, NK cells only", "result": "below"}, {"measurement": "TNF-alpha [ng/ml] avg", "setting": "[1]; 0.3 μM, NK cells only", "result": "below"}, {"measurement": "IFN-gamma [ng/ml] Avg", "setting": "[1]; 1 μM, NK cells & K562", "result": 11.75, "unit": "ng/mL"}, {"measurement": "TNF-alpha [ng/ml] avg", "setting": "[1]; 1 μM, NK cells & K562", "result": 0.34, "unit": "ng/mL"}, {"measurement": "IFN-gamma [ng/ml] Avg", "setting": "[1]; 1 μM, NK cells only", "result": "below"}, {"measurement": "TNF-alpha [ng/ml] avg", "setting": "[1]; 1 μM, NK cells only", "result": "below"}, {"measurement": "IFN-gamma [ng/ml] Avg", "setting": "[1]; 3 μM, NK cells & K562", "result": 12.11, "unit": "ng/mL"}, {"measurement": "TNF-alpha [ng/ml] avg", "setting": "[1]; 3 μM, NK cells & K562", "result": 0.47, "unit": "ng/mL"}, {"measurement": "IFN-gamma [ng/ml] Avg", "setting": "[1]; 3 μM, NK cells only", "result": "below"}, {"measurement": "TNF-alpha [ng/ml] avg", "setting": "[1]; 3 μM, NK cells only", "result": "below"}, {"measurement": "IFN-gamma [ng/ml] Avg", "setting": "[1]; 10 μM, NK cells & K562", "result": 17.15, "unit": "ng/mL"}, {"measurement": "TNF-alpha [ng/ml] avg", "setting": "[1]; 10 μM, NK cells & K562", "result": 0.57, "unit": "ng/mL"}, {"measurement": "IFN-gamma [ng/ml] Avg", "setting": "[1]; 10 μM, NK cells only", "result": "below"}, {"measurement": "TNF-alpha [ng/ml] avg", "setting": "[1]; 10 μM, NK cells only", "result": "below"}, {"measurement": "IFN-gamma [ng/ml] Avg", "setting": "[1]; 30 μM, NK cells & K562", "result": 19.12, "unit": "ng/mL"}, {"measurement": "TNF-alpha [ng/ml] avg", "setting": "[1]; 30 μM, NK cells & K562", "result": 0.70, "unit": "ng/mL"}, {"measurement": "IFN-gamma [ng/ml] Avg", "setting": "[1]; 30 μM, NK cells only", "result": "below"}, {"measurement": "TNF-alpha [ng/ml] avg", "setting": "[1]; 30 μM, NK cells only", "result": "below"}, {"measurement": "CD25+CD69+", "setting": "[1]; NK cells & K562, 0.03 μM", "result": 1.77, "unit": "% gated"}, {"measurement": "Granzyme", "setting": "[1]; NK cells & K562, 0.03 μM", "result": 0.48, "unit": "ng/mL"}, {"measurement": "CD25+CD69+", "setting": "[1]; NK cells & K562, 0.1 μM", "result": 2.29, "unit": "% gated"}, {"measurement": "Granzyme", "setting": "[1]; NK cells & K562, 0.1 μM", "result": 0.52, "unit": "ng/mL"}, {"measurement": "CD25+CD69+", "setting": "[1]; NK cells & K562, 0.3 μM", "result": 4.44, "unit": "% gated"}, {"measurement": "Granzyme", "setting": "[1]; NK cells & K562, 0.3 μM", "result": 0.68, "unit": "ng/mL"}, {"measurement": "CD25+CD69+", "setting": "[1]; NK cells & K562, 1 μM", "result": 10.74, "unit": "% gated"}, {"measurement": "Granzyme", "setting": "[1]; NK cells & K562, 1 μM", "result": 0.90, "unit": "ng/mL"}, {"measurement": "CD25+CD69+", "setting": "[1]; NK cells & K562, 3 μM", "result": 13.55, "unit": "% gated"}, {"measurement": "Granzyme", "setting": "[1]; NK cells & K562, 3 μM", "result": 1.15, "unit": "ng/mL"}, {"measurement": "CD25+CD69+", "setting": "[1]; NK cells & K562, 10 μM", "result": 17.81, "unit": "% gated"}, {"measurement": "Granzyme", "setting": "[1]; NK cells & K562, 10 μM", "result": 1.41, "unit": "ng/mL"}, {"measurement": "CD25+CD69+", "setting": "[1]; NK cells & K562, 30 μM", "result": 25.06, "unit": "% gated"}, {"measurement": "Granzyme", "setting": "[1]; NK cells & K562, 30 μM", "result": 2.12, "unit": "ng/mL"}, {"measurement": "production of IFN-gamma and TNF-alpha", "setting": "[1]; NK cells in co-culture with K562 leukemia cells", "result": "enhanced production of both cytokines specifically upon tumor cell contact"}, {"measurement": "enhancement of IFN-gamma and TNF-alpha production", "setting": "[1]; NK cells in the absence of tumor cells", "result": "such effect was not detected in the absence of tumor cells"}, {"measurement": "CD25+CD69+", "setting": "[1]; NK cells only, 0.03 μM", "result": 0.01, "unit": "% gated"}, {"measurement": "Granzyme", "setting": "[1]; NK cells only, 0.03 μM", "result": 0.08, "unit": "ng/mL"}, {"measurement": "CD25+CD69+", "setting": "[1]; NK cells only, 0.1 μM", "result": 0.02, "unit": "% gated"}, {"measurement": "Granzyme", "setting": "[1]; NK cells only, 0.1 μM", "result": 0.06, "unit": "ng/mL"}, {"measurement": "CD25+CD69+", "setting": "[1]; NK cells only, 0.3 μM", "result": 0.05, "unit": "% gated"}, {"measurement": "Granzyme", "setting": "[1]; NK cells only, 0.3 μM", "result": 0.08, "unit": "ng/mL"}, {"measurement": "CD25+CD69+", "setting": "[1]; NK cells only, 1 μM", "result": 0.15, "unit": "% gated"}, {"measurement": "Granzyme", "setting": "[1]; NK cells only, 1 μM", "result": 0.05, "unit": "ng/mL"}, {"measurement": "CD25+CD69+", "setting": "[1]; NK cells only, 3 μM", "result": 0.24, "unit": "% gated"}, {"measurement": "Granzyme", "setting": "[1]; NK cells only, 3 μM", "result": 0.05, "unit": "ng/mL"}, {"measurement": "CD25+CD69+", "setting": "[1]; NK cells only, 10 μM", "result": 0.46, "unit": "% gated"}, {"measurement": "Granzyme", "setting": "[1]; NK cells only, 10 μM", "result": 0.10, "unit": "ng/mL"}, {"measurement": "CD25+CD69+", "setting": "[1]; NK cells only, 30 μM", "result": 0.95, "unit": "% gated"}, {"measurement": "Granzyme", "setting": "[1]; NK cells only, 30 μM", "result": 0.16, "unit": "ng/mL"}, {"measurement": "Living tumor cells", "setting": "K562 leukemia cells; K562 only, 0.3 μM", "result": 31786.33}, {"measurement": "Living tumor cells", "setting": "K562 leukemia cells; K562 only, 3 μM", "result": 21495.00}, {"measurement": "Living tumor cells", "setting": "K562 leukemia cells; K562 only, 30 μM", "result": 22503.00}, {"measurement": "Living tumor cells", "setting": "K562 leukemia cells; NK cells & K562, 0.01 μM", "result": 696.00}, {"measurement": "Living tumor cells", "setting": "K562 leukemia cells; NK cells & K562, 0.03 μM", "result": 636.00}, {"measurement": "Living tumor cells", "setting": "K562 leukemia cells; NK cells & K562, 0.1 μM", "result": 567.00}, {"measurement": "Living tumor cells", "setting": "K562 leukemia cells; NK cells & K562, 0.3 μM", "result": 589.00}, {"measurement": "Living tumor cells", "setting": "K562 leukemia cells; NK cells & K562, 1 μM", "result": 520.33}, {"measurement": "Living tumor cells", "setting": "K562 leukemia cells; NK cells & K562, 3 μM", "result": 406.33}, {"measurement": "Living tumor cells", "setting": "K562 leukemia cells; NK cells & K562, 10 μM", "result": 398.33}, {"measurement": "Living tumor cells", "setting": "K562 leukemia cells; NK cells & K562, 30 μM", "result": 408.33}]}
